Experimental data from patent US10786475B2, “Method for preventing, treating, or improving fatty liver by administering effective amounts of azelaic acid to a subject” (Korea University Research and Business Foundation, priority 2018, dated 2020).

What was measured:
mice fed a high-fat diet = assay: Comparison of AzA-added and barley-added high-fat diets in mice; format: in vivo, mouse; details: 6 weeks
Method: A diet, in which an AzA (0.5 g/kg diet) or 10% (w/w) barley was added to a high-fat diet, was administered to mice for 6 weeks.

PPARα [1] = target: T1, PPARα (Mus musculus, UniProt P23204); assay: PPRE-luciferase assay in HEK293 cells; format: cell-based; details: HEK293 cells transfected with pSG5-PPAR alpha, various concentrations of AzA
T1 construct: host or cells: HEK293 cells (Korean Cell Line Bank)
T1 sequence (P23204 1-468): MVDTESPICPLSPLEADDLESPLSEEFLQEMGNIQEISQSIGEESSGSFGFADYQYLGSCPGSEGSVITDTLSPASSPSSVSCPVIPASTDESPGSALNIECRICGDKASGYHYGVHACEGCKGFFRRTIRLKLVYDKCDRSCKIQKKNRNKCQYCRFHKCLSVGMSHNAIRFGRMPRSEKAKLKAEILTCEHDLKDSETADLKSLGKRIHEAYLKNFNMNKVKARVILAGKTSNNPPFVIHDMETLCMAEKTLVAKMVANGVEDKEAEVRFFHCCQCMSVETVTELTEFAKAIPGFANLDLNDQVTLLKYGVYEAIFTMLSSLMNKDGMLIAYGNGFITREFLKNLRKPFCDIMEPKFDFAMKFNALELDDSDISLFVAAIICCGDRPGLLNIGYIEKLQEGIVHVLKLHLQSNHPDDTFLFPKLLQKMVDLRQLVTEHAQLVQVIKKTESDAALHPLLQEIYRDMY
Method: To measure PPRE-luciferase, HEK293 cells (Korean Cell Line Bank) seeded on a 24-well plate at […] cells/well were used. pSG5-PPAR alpha (Addgene, MA, USA) was co-transfected according to a given protocol using pCMV-3×PPRE-Luc, a Renilla expression vector and Lipofectamine 2000 (Invitrogen). After 24-hour post-transfection, the cells were treated with various concentrations of an AzA, and then analyzed using a dual luciferase assay kit (Promega, Fitchburg, Wis., USA) and Victor X2 (PerkinElmer, Santa Clara, Calif.). A luciferase fluorescent signal was standardized using Renilla.

Olfr544 = assay: cAMP, calcium and PKA activity in Hepa1c1c-7 cells (Olfr544 activation); format: cell-based, mouse
Method: A cAMP assay estimates a production level of cAMP, which is a secondary messenger material of a GPCR receptor activated by a ligand, using a cAMP standard calibration curve. A 96 well-plate included in a cAMP Assay ELISA kit (Enzo Life science, New York, USA) was coated with a GxR IgG antibody, and cAMP in a blue solution for plotting the standard calibration curve, binds with alkaline phosphatase and turns into yellow color by the rabbit antibody. When pNpp substrate is added into the wells bound with cAMP, alkaline phosphatase is activated to cause the color changes, and a cAMP concentration may be measured through colorimetric quantification at a wavelength of 405 nm. In this experiment, Hepa1c1c-7 cells were seeded on a 96-well plate at 1×10^4 cells/well for differentiation, and treated with 50 μM of AzA and 1 μM of Forskolin (FSK), which is a positive control, for 18 hours, and then a cAMP concentration was measured according to the above-described method.

[2] = system: Hepa1c1c-7 cells stimulated by LPS; assay: IL-6 and TNF-α gene expression (qPCR) in LPS-treated Hepa1c1c-7 cells; format: cell-based, mouse; details: compared with control group
Method: 1 μg of RNA extracted from Hepa1c1c-7 hepatocytes was used to synthesize cDNA by using a ReverTra Ace® qPCR RT kit (TOYOBO, Osaka, Japan). More particularly, to increase the efficiency of an RT-PCR reaction, the extracted RNA was treated at 65° C. for 5 minutes, and immediately stored on ice. Afterward, a total of 8 μL of a reaction mixture was prepared with 2 μL of a 4×DNA Master Mix containing a gDNA remover, 0.5 μg of RNA and distilled water (nuclease-free water), and reacted at 37° C. for 5 minutes. And then, a 5×RT Master mix was added to the reaction mixture, reacted at 37° C.-5 min, 50° C.-5 min and 98° C.-5 min to synthesize cDNA.
PCR was performed with the cDNA synthesized by the above-described method using a THUNDERBIRD SYBR qPCR Mix (TOYOBO, Osaka, Japan) and an iQ5 iCycler system (Bio-Rad, California, USA). More particularly, amplification was performed with initial denaturation at 95° C. for 4.5 minutes, and 40 cycles of additional denaturation at the same temperature for 10 seconds, annealing and cooling at 55 to 60° C. for 30 seconds, and elongation at 68° C. for 20 seconds. The expression level of each gene was normalized using GAPDH expression. Primers were designed using the Nucleotide BLAST Software of the National Center for Biotechnology Information (NCBI), and purchased from Bionics (Seoul, Korea).

PPARα [3] = assay: PPARα gene expression by qPCR in Hepa1c1c-7 cells; format: cell-based, mouse; details: 50 μM AzA, 2 hours, compared with control group
Method: To confirm the change in PPARα gene expression level by an AzA, Hepa1c1c-7 cells were seeded onto a 24-well plate at 5×10^5 cells/mL, cultured for 24 hours, and treated with 50 μM of AzA for 2 hours. Subsequently, RNA was extracted, and cDNA synthesis was performed from the extracted RNA using a ReverTra Ace® qPCR RT kit (TOYOBO, Osaka, Japan). More specifically, to increase PCR efficiency, the extracted RNA was treated at 65° C. for 5 minutes, and the resulting product was immediately stored on ice. Subsequently, a total of 8 μL of a reaction mixture was prepared with 2 μL of a 4×DNA Master Mix containing a gDNA remover, 0.5 μg of RNA and distilled water (nuclease-free water), and reacted at 37° C. for 5 minutes. Subsequently, a 5×RT Master mix was added to the reaction mixture, reacted at 37° C. for 5 minutes, at 50° C. for 5 minutes and at 98° C. for 5 minutes to synthesize cDNA. The cDNA synthesized by the above method was subjected to qPCR using a THUNDERBIRD SYBR qPCR Mix (TOYOBO) and an iQ5 iCycler system (Bio-Rad, California, USA) according to a method known to those of ordinary skill in the art. More particularly, amplification was performed with initial denaturation at 95° C. for 4.5 minutes, and 40 cycles of additional denaturation at the same temperature for 10 seconds, annealing and cooling at 55 to 60° C. for 30 seconds, and elongation at 68° C. for 20 seconds. […]

[4] = AzA (0.5 g/kg diet) added to high-fat diet
[5] = AzA (0.5 g/kg diet) or 10% (w/w) barley added to high-fat diet, between groups

What does the source list for O=C(O)CCCCCCCC(=O)O [AzA, nonanedioic acid]?
ALT concentration (hepatotoxicity marker) (mice fed a high-fat diet; [4]): decreased; LDL cholesterol concentration (mice fed a high-fat diet; [4]): significantly decreased; triglyceride concentration in liver tissue (fatty liver lesion marker) (mice fed a high-fat diet; [4]): significantly decreased; HDL cholesterol concentration (mice fed a high-fat diet; [5]): no differences; fasting blood glucose concentration (mice fed a high-fat diet; [5]): no differences; total cholesterol concentration (mice fed a high-fat diet; [5]): no differences; triglyceride concentration (blood) (mice fed a high-fat diet; [5]): no differences; body weight (mice fed a high-fat diet; AzA (0.5 g/kg diet) or 10% (w/w) barley added to high-fat diet, versus high-fat diet group): significantly decreased; PPARα activity (PPRE-luciferase): direct ligand for PPARα (PPARα [1]): does not act as a direct ligand for PPARα; cAMP concentration in the cells (Olfr544; 50 μM AzA, 18 hours, compared with control group): significantly increased; PKA activity (Olfr544; AzA treatment): significantly increased; calcium concentration in the cells (Olfr544; compared with control group): significantly increased; IL-6 gene expression [2]: significantly decreased; TNF-α gene expression [2]: significantly decreased; PPARα expression (PPARα [3]): significant increase
